Laboratory results as given in PMC7252619 (PLoS ONE, 2020).
Like-named read-outs stand apart in the source and are kept apart here.

What was measured:
Experiment in all cases: Kinase activity test (ReactionBiology), % enzyme activity relative to DMSO
Assay type in all cases: biochemical
DAPK1 = target: T1, DAPK1 (Homo sapiens, UniProt P53355); conditions: DAPK1
T1 construct: purchased ReactionBiology

VEGFR2 = VEGFR2 (Homo sapiens, UniProt P35968); design: purchased ReactionBiology; conditions: VEGFR2; for % Enzyme Activity (relative to DMSO controls), Data 2: replicate Data 2; for % Enzyme Activity (relative to DMSO controls), Data 1: replicate Data 1;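 for all read-outs here: VEGFR2 was one member of a ten-kinase screening panel testing marketed FDA-approved drugs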
Sequence of VEGFR2 (P35968 20-1356): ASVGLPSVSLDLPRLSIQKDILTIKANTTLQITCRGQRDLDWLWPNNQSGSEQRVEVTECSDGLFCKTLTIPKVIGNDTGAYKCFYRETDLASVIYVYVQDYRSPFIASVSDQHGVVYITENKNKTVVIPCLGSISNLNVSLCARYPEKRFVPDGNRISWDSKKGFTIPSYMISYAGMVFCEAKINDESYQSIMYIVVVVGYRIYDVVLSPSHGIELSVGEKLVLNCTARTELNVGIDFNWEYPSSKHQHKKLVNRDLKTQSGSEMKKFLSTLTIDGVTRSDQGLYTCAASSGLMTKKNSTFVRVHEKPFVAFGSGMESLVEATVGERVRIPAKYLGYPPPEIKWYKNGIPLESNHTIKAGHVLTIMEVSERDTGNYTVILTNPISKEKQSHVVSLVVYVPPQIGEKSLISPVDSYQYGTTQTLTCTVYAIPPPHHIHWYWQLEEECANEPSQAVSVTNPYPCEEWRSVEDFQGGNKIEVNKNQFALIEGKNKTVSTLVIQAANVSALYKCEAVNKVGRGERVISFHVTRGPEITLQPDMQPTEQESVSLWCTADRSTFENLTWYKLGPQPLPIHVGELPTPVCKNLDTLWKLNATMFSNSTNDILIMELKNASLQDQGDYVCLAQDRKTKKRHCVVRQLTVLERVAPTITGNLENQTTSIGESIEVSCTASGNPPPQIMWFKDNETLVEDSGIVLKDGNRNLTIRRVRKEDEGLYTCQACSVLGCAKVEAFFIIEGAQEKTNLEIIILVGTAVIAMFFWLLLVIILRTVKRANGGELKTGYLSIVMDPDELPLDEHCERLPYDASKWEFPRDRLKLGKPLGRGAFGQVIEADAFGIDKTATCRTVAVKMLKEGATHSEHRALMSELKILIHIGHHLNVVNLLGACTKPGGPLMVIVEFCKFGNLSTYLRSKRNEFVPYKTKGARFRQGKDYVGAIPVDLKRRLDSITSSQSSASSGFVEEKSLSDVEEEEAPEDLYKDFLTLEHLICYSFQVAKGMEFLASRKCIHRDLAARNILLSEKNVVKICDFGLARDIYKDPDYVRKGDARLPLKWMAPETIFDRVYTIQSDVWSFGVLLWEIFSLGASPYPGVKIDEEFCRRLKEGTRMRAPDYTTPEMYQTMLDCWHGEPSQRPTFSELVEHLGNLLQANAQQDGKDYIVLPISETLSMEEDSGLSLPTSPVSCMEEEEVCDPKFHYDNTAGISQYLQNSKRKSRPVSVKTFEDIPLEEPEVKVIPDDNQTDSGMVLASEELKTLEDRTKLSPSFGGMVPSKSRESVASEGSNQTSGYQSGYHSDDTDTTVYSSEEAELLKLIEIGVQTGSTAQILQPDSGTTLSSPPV

NEK2 = target: T2, NEK2 (Homo sapiens, UniProt P51955); conditions: NEK2;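 note: FDA-approved drugs chosen by structure-based repositioning, each screened at 10 or 1 µM for kinase activity, expressed as percent of DMSO controls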
T2 construct: purchased ReactionBiology
T2 sequence (P51955 1-445): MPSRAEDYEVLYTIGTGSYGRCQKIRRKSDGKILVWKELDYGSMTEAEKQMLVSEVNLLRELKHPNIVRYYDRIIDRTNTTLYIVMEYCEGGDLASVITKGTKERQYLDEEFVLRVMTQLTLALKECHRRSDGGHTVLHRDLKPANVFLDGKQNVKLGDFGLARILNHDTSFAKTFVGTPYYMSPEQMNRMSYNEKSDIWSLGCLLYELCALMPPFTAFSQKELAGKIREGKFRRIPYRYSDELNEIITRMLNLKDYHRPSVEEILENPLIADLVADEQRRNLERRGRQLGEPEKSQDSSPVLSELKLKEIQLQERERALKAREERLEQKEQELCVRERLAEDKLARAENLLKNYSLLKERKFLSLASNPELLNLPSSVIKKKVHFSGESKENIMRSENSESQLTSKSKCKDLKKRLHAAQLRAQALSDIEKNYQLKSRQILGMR

CK1d = target: T3, CK1d (Homo sapiens, UniProt P48730); conditions: CK1d
T3 construct: purchased ReactionBiology
T3 sequence (P48730 whole entry): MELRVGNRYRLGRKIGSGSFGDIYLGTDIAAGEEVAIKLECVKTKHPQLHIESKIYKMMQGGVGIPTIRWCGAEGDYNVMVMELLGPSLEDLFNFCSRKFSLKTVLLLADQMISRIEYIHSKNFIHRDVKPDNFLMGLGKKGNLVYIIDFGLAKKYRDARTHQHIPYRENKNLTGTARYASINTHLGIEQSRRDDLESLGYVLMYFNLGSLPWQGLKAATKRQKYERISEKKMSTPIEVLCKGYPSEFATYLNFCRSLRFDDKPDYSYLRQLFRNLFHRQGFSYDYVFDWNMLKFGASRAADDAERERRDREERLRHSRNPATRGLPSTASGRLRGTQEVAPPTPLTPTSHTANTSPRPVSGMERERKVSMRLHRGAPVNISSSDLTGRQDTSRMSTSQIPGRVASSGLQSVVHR

[1] = 1 uM, Average, read-out: % Enzyme Activity (relative to DMSO controls), Average
[2] = 1 uM, replicate Data 1, read-out: % Enzyme Activity (relative to DMSO controls), Data 1
[3] = 1 uM, replicate Data 2, read-out: % Enzyme Activity (relative to DMSO controls), Data 2
[4] = 10 uM, Average, read-out: % Enzyme Activity (relative to DMSO controls), Average
[5] = 10 uM, replicate Data 1, read-out: % Enzyme Activity (relative to DMSO controls), Data 1
[6] = 10 uM, replicate Data 2, read-out: % Enzyme Activity (relative to DMSO controls), Data 2
[7] = compound 1μM, relative to DMSO controls, read-out: % Enzyme activity at 1μM
[8] = compound 10μM, relative to DMSO controls, read-out: % Enzyme activity at 10μM
[9] = Average, read-out: % Enzyme Activity (relative to DMSO controls), Average
[10] = replicate Data 1, read-out: % Enzyme Activity (relative to DMSO controls), Data 1
[11] = replicate Data 2, read-out: % Enzyme Activity (relative to DMSO controls), Data 2

T1 sequence (P53355 whole entry): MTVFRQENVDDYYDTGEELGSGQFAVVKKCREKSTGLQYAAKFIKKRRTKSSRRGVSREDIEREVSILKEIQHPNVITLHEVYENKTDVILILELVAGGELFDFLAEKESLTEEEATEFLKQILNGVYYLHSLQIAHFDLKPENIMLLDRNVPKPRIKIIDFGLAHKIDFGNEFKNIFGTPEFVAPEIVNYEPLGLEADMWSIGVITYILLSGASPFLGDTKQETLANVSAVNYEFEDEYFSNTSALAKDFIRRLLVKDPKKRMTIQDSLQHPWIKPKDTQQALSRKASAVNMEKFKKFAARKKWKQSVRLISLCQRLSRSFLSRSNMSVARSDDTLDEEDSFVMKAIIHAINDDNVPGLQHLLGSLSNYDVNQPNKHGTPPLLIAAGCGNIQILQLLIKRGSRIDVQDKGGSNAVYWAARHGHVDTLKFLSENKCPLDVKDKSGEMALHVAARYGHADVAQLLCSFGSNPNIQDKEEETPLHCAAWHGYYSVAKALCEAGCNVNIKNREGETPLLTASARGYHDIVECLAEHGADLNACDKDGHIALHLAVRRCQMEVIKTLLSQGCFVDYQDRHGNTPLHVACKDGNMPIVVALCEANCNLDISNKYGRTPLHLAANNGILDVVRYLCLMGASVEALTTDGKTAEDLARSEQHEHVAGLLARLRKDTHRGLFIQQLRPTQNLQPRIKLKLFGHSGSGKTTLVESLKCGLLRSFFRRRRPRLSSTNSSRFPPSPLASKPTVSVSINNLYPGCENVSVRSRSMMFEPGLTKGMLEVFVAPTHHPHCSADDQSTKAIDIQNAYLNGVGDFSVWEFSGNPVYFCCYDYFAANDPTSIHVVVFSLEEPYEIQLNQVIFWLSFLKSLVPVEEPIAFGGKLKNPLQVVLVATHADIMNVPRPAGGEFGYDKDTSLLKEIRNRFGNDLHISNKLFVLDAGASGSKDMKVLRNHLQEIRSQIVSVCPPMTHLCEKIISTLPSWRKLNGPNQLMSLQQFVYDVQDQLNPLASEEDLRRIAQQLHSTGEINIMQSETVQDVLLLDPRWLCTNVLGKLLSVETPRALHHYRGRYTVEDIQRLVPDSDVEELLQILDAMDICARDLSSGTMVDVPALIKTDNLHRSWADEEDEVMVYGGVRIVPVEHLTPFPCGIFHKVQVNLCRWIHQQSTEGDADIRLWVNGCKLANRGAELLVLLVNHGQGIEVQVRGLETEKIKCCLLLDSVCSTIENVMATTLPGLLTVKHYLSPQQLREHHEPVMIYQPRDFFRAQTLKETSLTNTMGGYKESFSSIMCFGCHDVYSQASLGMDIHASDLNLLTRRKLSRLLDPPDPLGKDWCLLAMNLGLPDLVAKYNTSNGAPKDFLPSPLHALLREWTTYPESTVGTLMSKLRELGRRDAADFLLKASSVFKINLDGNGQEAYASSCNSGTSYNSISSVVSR

## N=C(N)c1ccc(OCCCCCOc2ccc(C(=N)N)cc2)cc1 [Pentamidine]
DAPK1; 10 uM, replicate Data 2
  % Enzyme Activity (relative to DMSO controls), Data 2: 88.42%
VEGFR2; 10 uM
  % Enzyme Activity (relative to DMSO controls), Data 2: 93.27%

## CC(=O)CCCCn1c(=O)c2c(ncn2C)n(C)c1=O [Pentoxifylline]
NEK2; 1 uM, Average
  % Enzyme Activity (relative to DMSO controls), Average: 90.71%
NEK2; 1 uM, replicate Data 1
  % Enzyme Activity (relative to DMSO controls), Data 1: 91.06%
NEK2; 1 uM, replicate Data 2
  % Enzyme Activity (relative to DMSO controls), Data 2: 90.35%
NEK2; 10 uM, Average
  % Enzyme Activity (relative to DMSO controls), Average: 88.11%
NEK2; 10 uM, replicate Data 1
  % Enzyme Activity (relative to DMSO controls), Data 1: 86.43%
NEK2; 10 uM, replicate Data 2
  % Enzyme Activity (relative to DMSO controls), Data 2: 89.78%

## CC(C)(C)NC(=O)[C@@H]1C[C@@H]2CCCC[C@@H]2CN1C[C@@H](O)[C@H](Cc1ccccc1)NC(=O)[C@H](CC(N)=O)NC(=O)c1ccc2ccccc2n1 [Saquinavir, reference compound]
DAPK1; [1]
  remaining activity at 1 µM: 87.1%
DAPK1; [2]
  remaining activity at 1 µM: 88.8%
DAPK1; [3]
  remaining activity at 1 µM: 85.3%
DAPK1; [4]
  remaining activity at 10 µM: 27.8%
DAPK1; [5]
  remaining activity at 10 µM: 27.8%
DAPK1; [6]
  remaining activity at 10 µM: 27.8%
DAPK1; [7]
  remaining activity at 1 µM: 87.1%
DAPK1; [8]
  remaining activity at 10 µM: 27.8%
CK1d; [9]
  remaining activity at 1 µM: 109%
  remaining activity at 10 µM: 121%
CK1d; [10]
  remaining activity at 1 µM: 107%
  remaining activity at 10 µM: 123%
CK1d; [11]
  remaining activity at 1 µM: 111%
  remaining activity at 10 µM: 119%

## Nc1nc2[nH]cnc2c(=S)[nH]1 [Thioguanine]
NEK2; 1 uM, Average
  % Enzyme Activity (relative to DMSO controls), Average: 92.40%
NEK2; 1 uM, replicate Data 1
  % Enzyme Activity (relative to DMSO controls), Data 1: 91.41%
NEK2; 1 uM, replicate Data 2
  % Enzyme Activity (relative to DMSO controls), Data 2: 93.38%
NEK2; 10 uM, Average
  % Enzyme Activity (relative to DMSO controls), Average: 107.92%
NEK2; 10 uM, replicate Data 1
  % Enzyme Activity (relative to DMSO controls), Data 1: 110.57%
NEK2; 10 uM, replicate Data 2
  % Enzyme Activity (relative to DMSO controls), Data 2: 105.26%

## Cc1ccc(C(=O)c2ccc(CC(=O)O)n2C)cc1 [Tolmetin]
NEK2; compound at 1 uM, average of Data 1 and Data 2
  % Enzyme Activity (relative to DMSO controls), Average: 115.23%
NEK2; compound at 1 uM, replicate 1
  % Enzyme Activity (relative to DMSO controls), Data 1: 120.50%
NEK2; compound at 1 uM, replicate 2
  % Enzyme Activity (relative to DMSO controls), Data 2: 109.96%
NEK2; compound at 10 uM, average of Data 1 and Data 2
  % Enzyme Activity (relative to DMSO controls), Average: 107.09%
NEK2; compound at 10 uM, replicate 1
  % Enzyme Activity (relative to DMSO controls), Data 1: 112.71%
NEK2; compound at 10 uM, replicate 2
  % Enzyme Activity (relative to DMSO controls), Data 2: 101.47%

## CN(C)CCOc1ccc(/C(=C(/CCCl)c2ccccc2)c2ccccc2)cc1 [Toremifene, reference compound]
DAPK1; [1]
  remaining activity at 1 µM: 90.4%
DAPK1; [2]
  remaining activity at 1 µM: 70.4%
DAPK1; [3]
  remaining activity at 1 µM: 110%
DAPK1; [4]
  remaining activity at 10 µM: 14.8%
DAPK1; [5]
  remaining activity at 10 µM: 14.9%
DAPK1; [6]
  remaining activity at 10 µM: 14.6%
DAPK1; [7]
  remaining activity at 1 µM: 90.4%
DAPK1; [8]
  remaining activity at 10 µM: 14.8%

## NC[C@H]1CC[C@H](C(=O)O)CC1 [Tranexamic acid]
NEK2; [1]
  remaining activity at 1 µM: 72.5%
NEK2; [2]
  remaining activity at 1 µM: 60.7%
NEK2; [3]
  remaining activity at 1 µM: 84.2%
NEK2; [4]
  remaining activity at 10 µM: 85.3%
NEK2; [5]
  remaining activity at 10 µM: 72.1%
NEK2; [6]
  remaining activity at 10 µM: 98.5%

## CN1[C@@H]2CC[C@H]1C[C@@H](OC(=O)c1c[nH]c3ccccc13)C2 [Tropisetron]
DAPK1; 1 uM, Average
  % Enzyme Activity (relative to DMSO controls), Average: 100.48%
DAPK1; 1 uM, replicate Data 1
  % Enzyme Activity (relative to DMSO controls), Data 1: 103.12%
DAPK1; 1 uM, replicate Data 2
  % Enzyme Activity (relative to DMSO controls), Data 2: 97.84%
DAPK1; 10 uM, Average
  % Enzyme Activity (relative to DMSO controls), Average: 91.18%
DAPK1; 10 uM, replicate Data 1
  % Enzyme Activity (relative to DMSO controls), Data 1: 92.93%
DAPK1; 10 uM, replicate Data 2
  % Enzyme Activity (relative to DMSO controls), Data 2: 89.43%
VEGFR2; 1 uM
  % Enzyme Activity (relative to DMSO controls), Average: 100.61%
  % Enzyme Activity (relative to DMSO controls), Data 1: 99.56%
  % Enzyme Activity (relative to DMSO controls), Data 2: 101.65%
VEGFR2; 10 uM
  % Enzyme Activity (relative to DMSO controls), Average: 97.73%
  % Enzyme Activity (relative to DMSO controls), Data 1: 102.27%
  % Enzyme Activity (relative to DMSO controls), Data 2: 93.19%

## Acarbose
DAPK1; 1 uM, Average
  % Enzyme Activity (relative to DMSO controls), Average: 112.14%
DAPK1; 1 uM, replicate Data 1
  % Enzyme Activity (relative to DMSO controls), Data 1: 116.25%
DAPK1; 1 uM, replicate Data 2
  % Enzyme Activity (relative to DMSO controls), Data 2: 108.03%
DAPK1; 10 uM, Average
  % Enzyme Activity (relative to DMSO controls), Average: 96.08%
DAPK1; 10 uM, replicate Data 1
  % Enzyme Activity (relative to DMSO controls), Data 1: 99.05%
DAPK1; 10 uM, replicate Data 2
  % Enzyme Activity (relative to DMSO controls), Data 2: 93.1%
